“Also recorded” adds a separate entry of the source. Where two headings read alike, the source gives them in different places.

Series [1] in a line: ABTS radical assay (free radical scavenging). Format: biochemical. How it is done: We investigated the free radical scavenging ability of the selected ligands and their newly synthesised complexes using the ABTS assay. 2,2′-Azinobis-[3-ethylbenzthiazoline-6-sulfonic acid] (ABTS) was dissolved in Milli-Q water to yield a 7 mM solution. The ABTS radical cation solution was prepared by allowing the ABTS solution to react with the K2S2O8 solution (final concentration 2.45 mM) for 16 h in the dark at room temperature. It has been reported that the extinction coefficient of ABTS^•+ radicals at 734 nm is 1.5 × 10^4 mol^−1 L cm^−1. Using the Beer–Lambert law, ABTS^•+ radical concentrations were calculated. To determine the antioxidant capacity of the complex solutions and standard antioxidant (Trolox), the ABTS solution was diluted with 5 mM PBS (pH 7.4) to an absorbance at 732 nm of 0.7 ± 0.1 After the addition of different volumes (0–1 mL) of each compound solution to 2.5 mL of diluted ABTS^•+, the absorbance was measured at 30 min. All samples were analysed in triplicate. The ABTS^•+radical scavenging activity (AA%) was calculated using the following equation: AA% = ((Acontrol − Asample)/(Acontrol)) × 100, where Acontrol is the absorbance of the blank control (containing ABTS^•+ solution without test sample) and Asample is the absorbance of the test sample. The antioxidant activity was described as the 50% inhibition concentration (IC50). The IC50 values were calculated from regression lines where x is the concentration of complex or ligand in mM and y is the percent inhibition of the analysed compound.

On the set-up of series [2]: method as in PMID 24406400. Particulars: aqueous solution; cited from earlier work.
For series [3], the system named is HT29 (colon adenocarcinoma). Kind of series: in vitro cytotoxicity / proliferation, HT29. Type of series: cell-based, human. The conditions noted are these: read-out: IC50 (inhibits proliferation of 50% of cells). The source says:
(§1) For IC50 determination, the human cancer lines A549 (non-small cell lung carcinoma), HT29 (colon adenocarcinoma) and MCF-7 (breast adenocarcinoma), and a healthy mouse fibroblast cell line (BALB/3T3), were used. All tested cell lines were obtained from the American Type Culture Collection (Rockville, MD, USA) and maintained at the Cell Culture Collection of the Hirszfeld Institute of Immunology and Experimental Therapy (Wrocław, Poland). The details of the experimental conditions were described in [69]. […] IC50 values were calculated separately for each experiment, which was repeated 3–5 times.

Series [4] has as its system healthy mouse fibroblast cell line (BALB/3T3). Kind of series: in vitro cytotoxicity / proliferation, BALB/3T3. Format: cell-based. The conditions noted are these: for IC50: BALB/3T3 normal cell line, read-out: IC50 (inhibits proliferation of 50% of cells).
From the text: as §1

The nature of a further series: solubility. Type of series: physicochemical. As to the method:
(§2) Among the synthetic compounds used for modelling biological systems, mimetics that are soluble in solvents of neutral pH are particularly favoured because they can penetrate cell membranes and, thus, be absorbed by the organism. […] Additionally, we checked the stability of selected complexes in buffer solution (PBS) at two different time points (0 min and 12 h).

Series [5] can be described thus: stability in buffer solution (PBS) by UV-Vis. The conditions noted are these: room temperature, 0 min and 12 h, UV-Vis spectra. Type of series: physicochemical. As to the method:
as §2

For series [6], the system named is A549 (non-small cell lung carcinoma). Description: in vitro cytotoxicity / proliferation, A549. Type of series: cell-based, human. Particulars: read-out: IC50 (inhibits proliferation of 50% of cells).
From the text: as §1

Series [7] relates to MCF-7 (breast adenocarcinoma). Description: in vitro cytotoxicity / proliferation, MCF-7. Format: cell-based, human. Particulars: read-out: IC50 (inhibits proliferation of 50% of cells).
From the text: as §1

For series [8], the system named is total antioxidant status (TAS). Description: TAS level (RANDOX test) in patients' blood samples after addition of the mimetic. Format: biochemical, human. The conditions noted are these: post-chemotherapy group, 25 µg/mL, versus samples without complex. The source says:
(§3) The present study was based on 20 women of the Regional Hospital in Kielce who had previously undergone therapy for diagnosed breast tumour, and 10 healthy volunteers (samples were anonymised). Patients were divided into subgroups those after chemotherapy (n = 10) and after radiotherapy (n = 10). The protocol and procedures were undertaken according to the Helsinki Declaration and were approved by the Bioethics Committee of the Świętokrzyska Medical Chamber in Kielce (permission number 1/2015-B). Before obtaining blood, patients and healthy subjects signed informed consent and agreed to the use of the samples for research purposes. Approximately 5 mL of blood was taken from the patients by venous puncture. Blood samples were collected in 3 mL tubes containing EDTA as an anticoagulant, and in tubes with no anticoagulant. Tubes were centrifuged at 3500 rpm for 15 min to obtain plasma and serum, respectively. Erythrocytes were washed with 0.9% sodium chloride. […]
(§4) The activities of TAS, SOD, CAT and GPx were measured using commercial kits, according to the manufacturers’ instructions. […]
The TAS level was evaluated by RANDOX test (Randox Laboratories, United Kingdom) following the method described by Miller et al.. […] Suppression of the blue-green colour of radicals (measured at 600 nm) is proportional to antioxidants’ concentration (TAS). The results were expressed as mmol/L serum.

In a further series the test system is SOD. Description: SOD activity (RANSOD test) in patients' blood samples after addition of the mimetic. Type of series: biochemical, human.
From the text: as §3, §4
The SOD activity was measured with the RANSOD test (Randox Laboratories, United Kingdom) based on the method of McCord and Fridovich. […] The superoxide dismutase activity is measured by the degree of inhibition of this reaction. […] The activity of SOD was measured spectrophotometrically at 505 nm and expressed as U/mL.

The subject of a further series is CAT. Description: CAT activity (Catalase assay kit) in patients' blood samples after addition of the mimetic. Format: biochemical, human. The conditions noted are these: post-chemotherapy group, 25 µg/mL, versus samples without complex.
From the text: as §3, with “respectively.” for “respectively. Erythrocytes were washed with 0.9% sodium chloride.”
as §4
The CAT activity measurement was measured with the Catalase assay kit (Calbiochem, Merck, Darmstadt, Germany) based on the reaction of the enzyme with methanol in the presence of an optimal concentration of H2O2 [72]. The formaldehyde produced is measured colourimetrically (at 540 nm) with 4-amino-3-hydrazino- 5-mercapto-1,2,4-triazole (Purpald) as the chromogen.

Setting [9] is: ABTS^•+ diluted with 5 mM PBS pH 7.4, absorbance at 30 min, read-out: IC50 (ABTS radical scavenging activity).

Take `OCc1ccccn1` [2-(HOCH2)py, 2-(hydroxymethyl)pyridine, reference compound]: in [1] (setting [9]), the IC50 was determined as 3790 ± 230 µM.

Consider `OCCc1ccccn1` [2-(HOCH2CH2)py, 2-(hydroxyethyl)pyridine, reference compound], for which, in series [1] (setting [9]), the IC50 was determined as 7000 µM.

With `O.O.OCc1ccccn1.OCc1ccccn1.OCc1ccccn1.OCc1ccccn1.[Cl-].[Cl-].[Cl-].[Cl-].[Mn+2].[Mn+2]` [[Mn2(μ-Cl)2(2-CH2OHpy)4]Cl2·2H2O], the “TOF (catalytic activity, H2O2 decomposition)” value in [2] was 0.0187 min⁻¹.

Take `N.N.[Cl][Pt][Cl]` [cisplatin, reference compound]: the IC50 in series [3] was 9.23 ± 0.77 µM; in series [4], 3.33 ± 0.38 µM.

Turning to `OCCc1ccccn1.OCCc1ccccn1.[Cu+2].[Cu+2].[O-]CCc1ccccn1.[O-]CCc1ccccn1.[O-][Cl+3]([O-])([O-])[O-].[O-][Cl+3]([O-])([O-])[O-]` [complex 3, [Cu2(2-(HOCH2CH2)py)2(2-(OCH2CH2)py)2](ClO4)2], the IC50 in series [1] (setting [9]) was 620 ± 50 µM. The solubility in water result in the series “solubility” is “soluble in water”. For the same compound, the “stability in buffer solution (PBS)” value in series [5] is on record as “confirmed the stability”.

As for `OC(O)(c1ccccn1)c1ccccn1.OC(O)(c1ccccn1)c1ccccn1.[Cu+2].[O-][Cl+3]([O-])([O-])[O-].[O-][Cl+3]([O-])([O-])[O-]` [complex 5, [Cu(py2C(OH)2)2](ClO4)2], the IC50 in series [1] (setting [9]) was 24500 ± 500 µM. Further, the solubility in water entry in “solubility” is recorded as “soluble in water”. Also, the “stability in buffer solution (PBS)” value in series [5] is given as “confirmed the stability”.

Regarding [Cu(2-(HOCH2)py)3](ClO4)2 [complex 1], the IC50 came to 260 ± 30 µM in series [1] (setting [9]); 260 ± 30 µM in series [1] (Figure 10a and b50, unit inferred, read-out: IC50 (ABTS radical scavenging), unit inferred); 94.7 ± 3.9 µM in [6]; 98.5 ± 2.7 µM in [3]; 91.7 ± 2.9 µM in series [7]; 106 ± 4.2 µM in series [4]. In addition, the “lower cytotoxicity against normal cell line compared to cisplatin” value in series [4] (BALB/3T3, versus cisplatin) is given as “about 30 times”. In addition, the “increase of total antioxidant status after addition of the mimetic” value in [8] is reported as 0.17 U/mL. Besides, the “SOD activity higher compared to the control group” value in the series on SOD (post-chemoradiotherapy group with mimetic) came to 4.2 U/mL. For the same compound, in the series with SOD (post-chemotherapy group, complex 25 μg/mL of blood), the SOD activity stood at 211.91 U/mL. The “increase of CAT enzyme activity after addition of the mimetic” value in the series with CAT worked out at 0.18 U/mL. Besides, the solubility in water entry in the series “solubility” is listed as “soluble in water; also recorded: good solubility in water”. Also, in series [5], the “stability in buffer solution (PBS)” value is reported as “confirmed the stability”.
